Tested on: rabbits
Assay: Tissue proton T1 and T2 relaxation times 15 min after intravenous administration (dose-response)
Type: in vivo
Conditions: for T1 relaxation time / T2 relaxation time: 10 mHz RADX
Procedure: All experiments employing the complex dihydrogen bis(N-[N′-(2,6-dimethylphenyl)carbamoylmethyl]iminodiaceto)manganese (II) trihydrate were conducted following intravenous administration to rabbits. A 10 mM solution of the complex was used in these studies. Rabbits were anesthetized with ketamine/xylazine prior to treatment. The results given were obtained with a 10 mHz RADX proton spin analyzer.
Dose-response experiments were conducted on rabbits following intravenous injection of 0.01-0.10 mmol of the complex/kg. […]

[1] = 0.01-0.10 mmol/kg i.v., rabbits, 15 min
[2] = Bladder, 15 min after 0.01 mmol/kg i.v., rabbits
[3] = Bladder, 15 min after 0.03 mmol/kg i.v., rabbits
[4] = Bladder, 15 min after 0.08 mmol/kg i.v., rabbits
[5] = Bladder, 15 min after 0.10 mmol/kg i.v., 1 rabbit
[6] = Blood, 5 min, 0.01 mmol/kg i.v., rabbits
[7] = Blood, 5 min, 0.03 mmol/kg i.v., rabbits
[8] = Blood, 5 min, 0.08 mmol/kg i.v., rabbits
[9] = Blood, 5 min, 0.10 mmol/kg i.v., 1 rabbit
[10] = Blood, 10 min, 0.01 mmol/kg i.v., rabbits
[11] = Blood, 10 min, 0.03 mmol/kg i.v., rabbits
[12] = Blood, 10 min, 0.08 mmol/kg i.v., rabbits
[13] = Blood, 10 min, 0.10 mmol/kg i.v., 1 rabbit
[14] = Blood, 15 min, 0.01 mmol/kg i.v., rabbits
[15] = Blood, 15 min, 0.03 mmol/kg i.v., rabbits
[16] = Blood, 15 min, 0.08 mmol/kg i.v., rabbits
[17] = Fat, 15 min after 0.01 mmol/kg i.v., rabbits
[18] = Fat, 15 min after 0.03 mmol/kg i.v., rabbits
[19] = Fat, 15 min after 0.08 mmol/kg i.v., rabbits
[20] = Fat, 15 min after 0.10 mmol/kg i.v., 1 rabbit
[21] = Heart, 15 min after 0.01 mmol/kg i.v., rabbits
[22] = Heart, 15 min after 0.03 mmol/kg i.v., rabbits
[23] = Heart, 15 min after 0.08 mmol/kg i.v., rabbits
[24] = Heart, 15 min after 0.10 mmol/kg i.v., 1 rabbit
[25] = Large Intestine, 15 min after 0.01 mmol/kg i.v., rabbits
[26] = Large Intestine, 15 min after 0.03 mmol/kg i.v., rabbits
[27] = Large Intestine, 15 min after 0.08 mmol/kg i.v., rabbits
[28] = Large Intestine, 15 min after 0.10 mmol/kg i.v., 1 rabbit
[29] = Large Intestine, rabbits, 15 min
[30] = Liver, 15 min after 0.01 mmol/kg i.v., rabbits
[31] = Liver, 15 min after 0.03 mmol/kg i.v., rabbits
[32] = Liver, 15 min after 0.08 mmol/kg i.v., rabbits
[33] = Liver, 15 min after 0.10 mmol/kg i.v., 1 rabbit
[34] = Lung, 15 min after 0.01 mmol/kg i.v., rabbits
[35] = Lung, 15 min after 0.03 mmol/kg i.v., rabbits

## Cc1cccc(C)c1NC(=O)CN(CC(=O)[O-])CC(=O)O.Cc1cccc(C)c1NC(=O)CN(CC(=O)[O-])CC(=O)O.O.O.O.[Mn+2] [Example 2]
[1]
  effect on tissue T1 relaxation times: dose-related decrease
  effect on tissue T2 relaxation times: minimally affected
[2]
  T1 relaxation time: 380 ms
  T2 relaxation time: 84 ms
[3]
  T1 relaxation time: 312 ms
  T2 relaxation time: 68 ms
[4]
  T1 relaxation time: 173 ms
  T2 relaxation time: 60 ms
[5]
  T1 relaxation time: 159 ms
  T2 relaxation time: 61 ms
Bladder, rabbits, 15 min
  Approximate ED50, intravenous dose to reduce tissue T1 by 50%: 0.060 mmol/kg
  Approximate ED50, intravenous dose to reduce tissue T2 by 50%: 0.51 mmol/kg
[6]
  T1 relaxation time: 554 ms
  T2 relaxation time: 161 ms
[7]
  T1 relaxation time: 192 ms
  T2 relaxation time: 110 ms
[8]
  T1 relaxation time: 70 ms
  T2 relaxation time: 56 ms
[9]
  T1 relaxation time: 64 ms
  T2 relaxation time: 55 ms
[10]
  T1 relaxation time: 604 ms
  T2 relaxation time: 165 ms
[11]
  T1 relaxation time: 283 ms
  T2 relaxation time: 119 ms
[12]
  T1 relaxation time: 96 ms
  T2 relaxation time: 72 ms
[13]
  T1 relaxation time: 398 ms
  T2 relaxation time: 179 ms
[14]
  T1 relaxation time: 639 ms
  T2 relaxation time: 171 ms
[15]
  T1 relaxation time: 368 ms
  T2 relaxation time: 141 ms
[16]
  T1 relaxation time: 115 ms
  T2 relaxation time: 82 ms
[17]
  T1 relaxation time: 148 ms
  T2 relaxation time: 129 ms
[18]
  T1 relaxation time: 136 ms
  T2 relaxation time: 122 ms
[19]
  T1 relaxation time: 125 ms
  T2 relaxation time: 122 ms
[20]
  T1 relaxation time: 122 ms
  T2 relaxation time: 89 ms
Fat, rabbits, 15 min
  Approximate ED50, intravenous dose to reduce tissue T1 by 50%: 11.94 mmol/kg
[21]
  T1 relaxation time: 370 ms
  T2 relaxation time: 64 ms
[22]
  T1 relaxation time: 222 ms
  T2 relaxation time: 56 ms
[23]
  T1 relaxation time: 104 ms
  T2 relaxation time: 43 ms
[24]
  T1 relaxation time: 84 ms
  T2 relaxation time: 39 ms
Heart, rabbits, 15 min
  Approximate ED50, intravenous dose to reduce tissue T1 by 50%: 0.037 mmol/kg
  Approximate ED50, intravenous dose to reduce tissue T2 by 50%: 0.38 mmol/kg
[25]
  T1 relaxation time: 245 ms
  T2 relaxation time: 65 ms
[26]
  T1 relaxation time: 155 ms
  T2 relaxation time: 52 ms
[27]
  T1 relaxation time: 123 ms
  T2 relaxation time: 43 ms
[28]
  T1 relaxation time: 166 ms
  T2 relaxation time: 53 ms
[29]
  Approximate ED50, intravenous dose to reduce tissue T1 by 50%: 0.050 mmol/kg
  Approximate ED50, intravenous dose to reduce tissue T2 by 50%: 0.19 mmol/kg
[30]
  T1 relaxation time: 92 ms
  T2 relaxation time: 41 ms
[31]
  T1 relaxation time: 49 ms
  T2 relaxation time: 25 ms
[32]
  T1 relaxation time: 28 ms
  T2 relaxation time: 18 ms
[33]
  T1 relaxation time: 143 ms
  T2 relaxation time: 87 ms
Liver, rabbits, 15 min
  Approximate ED50, intravenous dose to reduce tissue T2 by 50%: 0.04 mmol/kg
Liver, rabbits, 15 min, listed as Dihydrogen Bis(N-[N′-(2,6-dimethylphenyl)carbamoylmethyl]iminodiaceto)manganese(, Trihydrate)
  Approximate ED50, intravenous dose to reduce tissue T1 by 50%: 0.0067 mmol/kg
Liver, rabbits, 15 min, listed as dihydrogen bis(N-[N′-(2,6-dimethylphenyl)carbamoylmethyl]-iminodiaceto)manganese, Trihydrate
  Approximate ED50, intravenous dose to reduce tissue T1 by 50%: less than 0.01 mmol/kg
[34]
  T1 relaxation time: 464 ms
  T2 relaxation time: 91 ms
[35]
  T1 relaxation time: 352 ms
  T2 relaxation time: 100 ms

Reference: patent publication US6797255B1, “Methods and compositions for enhancing magnetic resonance imaging” (Mallinckrodt Inc., priority 1985, dated 2004)
